Assay results as given in US20250082931A1, “Treating Gastric Cancer Using TTFields Combined with XELOX, FOLFOX or the Individual Constituents Thereof” (Novocure GmbH, priority 2019, published 2025).

How the values were obtained:
[1] = test system: KATO III cells; test: Apoptosis analysis by Annexin V / 7AAD staining; format: cell-based; details: for AnnV+ 7AAD+ cell fraction / AnnV+ 7AAD− cell fraction / AnnV− 7AAD+ cell fraction / AnnV− 7AAD− cell fraction: 72 h
[2] = test system: KATO III cells; test: Cytotoxic effect by cell count after 72 h, with and without TTFields
Description: (§1) During the treatment the media of all dishes was replaced every 24 h (“hours”).
(§2) After 72 h of treatment the media and the cells were collected, and cytotoxicity was determined by cell counts.
(§3) Cells were seeded on inovitro dishes and petri dishes 24 h before starting the experiments. Media containing the indicated concentration of each chemotherapy component alone or FOLFOX and control media was added to the cells and the dishes were connected to TTFields (as in SOP-BI-009) or grown in 37° C., 5% CO2 for 72 h. Each treatment included 8 repeats (8 dishes). The media was replaced every 24 h. At the end of the experiment the cells were collected, and cytotoxicity was determined by cell counts, small number of cells were seeded for colonies and the cells (including cells from the media) were stained for Annexin V and 7AAD for apoptosis analysis.
(§4) A TTFields generator (Inovitro systems) was used to apply the treatment to the cells.
(§5) Cytotoxic effect: Average and standard deviation of cell number of at least 5 dishes from each treatment was calculated in Excel software. The averages from these repeats was calculated to averages and standard error and is presented as percent from control (no drug treatment) in XY graph of points with error bars using GraphPed software. Significant was determine by 2-way ANOVA followed Multiple comparison using GraphPed software.

[3] = test system: AGS cells; test: as above
Description: as §1, §2, §3, §4, §5

[4] = test system: KATO III cells; test: Overall effect (cytotoxic effect x clonogenic effect); details: low concentration
Description: (§6) After 6-14 days the colonies were fixed, stained and counted to determine clonogenic effect. The overall effect was calculated by multiplying the cytotoxic effect and the clonogenic effect.
Overall effect: Each colony number was multiply in the percent of cytotoxic effect of its dish and averages and standard deviations of each treatment were calculated in Excel software. […] Significant was determine by 2-way ANOVA followed Multiple comparison using GraphPed software.

[5] = test system: AGS cells; test: Clonogenic effect (colonies count); format: cell-based; details: 25 nM, 72 h
Description: After 72 h of treatment the media and the cells were collected, and cytotoxicity was determined by cell counts. […] For the testing of the clonogenic effect, cells were seeded for colonies.
as §6
Clonogenic effect: The colonies from each well were counted using ImageJ software. Average and standard deviation of colony number of at least 5 wells from each treatment were calculated in excel software. The averages from these repeats was calculated to averages and standard errors and is presented as percent from control (no drug treatment) in XY graph of points with error bars using GraphPed software. Significant was determine by 2-way ANOVA followed Multiple comparison using GraphPed software.

[6] = 50 nM, + TTFields 150 kHz 1.6 V/cm
[7] = 100 nM, + TTFields 150 kHz 1.6 V/cm
[8] = 200 nM, + TTFields 150 kHz 1.6 V/cm
[9] = 400 nM, + TTFields 150 kHz 1.6 V/cm
[10] = FOLFOX experiment, 50 nM, + TTFields 150 kHz 1.6 V/cm
[11] = FOLFOX experiment, 50 nM, no TTFields

O=C1[O][Pt]2([NH][C@@H]3CCCC[C@H]3[NH]2)[O]C1=O [Oxaliplatin]
elevation in percent of cells that undergo apoptosis, drug + TTFields compared to drug alone [1]: higher | AnnV+ 7AAD+ cell fraction [1, 6]: 16.12% | AnnV+ 7AAD− cell fraction [1, 6]: 16.57% | AnnV− 7AAD+ cell fraction [1, 6]: 1.31% | AnnV− 7AAD− cell fraction [1, 6]: 66.01% | AnnV+ 7AAD+ cell fraction ([1]; 50 nM, no TTFields): 6.09% | AnnV+ 7AAD− cell fraction ([1]; 50 nM, no TTFields): 11.36% | AnnV− 7AAD+ cell fraction ([1]; 50 nM, no TTFields): 1.30% | AnnV− 7AAD− cell fraction ([1]; 50 nM, no TTFields): 81.25% | AnnV+ 7AAD+ cell fraction [1, 7]: 14.83% | AnnV+ 7AAD− cell fraction [1, 7]: 19.81% | AnnV− 7AAD+ cell fraction [1, 7]: 0.72% | AnnV− 7AAD− cell fraction [1, 7]: 64.63% | AnnV+ 7AAD+ cell fraction ([1]; 100 nM, no TTFields): 6.42% | AnnV+ 7AAD− cell fraction ([1]; 100 nM, no TTFields): 10.55% | AnnV− 7AAD+ cell fraction ([1]; 100 nM, no TTFields): 1.32% | AnnV− 7AAD− cell fraction ([1]; 100 nM, no TTFields): 81.71% | AnnV+ 7AAD+ cell fraction [1, 8]: 19.97% | AnnV+ 7AAD− cell fraction [1, 8]: 22.60% | AnnV− 7AAD+ cell fraction [1, 8]: 0.86% | AnnV− 7AAD− cell fraction [1, 8]: 56.57% | AnnV+ 7AAD+ cell fraction ([1]; 200 nM, no TTFields): 8.42% | AnnV+ 7AAD− cell fraction ([1]; 200 nM, no TTFields): 11.47% | AnnV− 7AAD+ cell fraction ([1]; 200 nM, no TTFields): 1.01% | AnnV− 7AAD− cell fraction ([1]; 200 nM, no TTFields): 79.10% | AnnV+ 7AAD+ cell fraction [1, 9]: 21.45% | AnnV+ 7AAD− cell fraction [1, 9]: 25.36% | AnnV− 7AAD+ cell fraction [1, 9]: 0.65% | AnnV− 7AAD− cell fraction [1, 9]: 52.54% | AnnV+ 7AAD+ cell fraction ([1]; 400 nM, no TTFields): 11.24% | AnnV+ 7AAD− cell fraction ([1]; 400 nM, no TTFields): 12.11% | AnnV− 7AAD+ cell fraction ([1]; 400 nM, no TTFields): 1.42% | AnnV− 7AAD− cell fraction ([1]; 400 nM, no TTFields): 75.23% | AnnV+ 7AAD+ cell fraction [1, 10]: 27.60% | AnnV+ 7AAD− cell fraction [1, 10]: 15.15% | AnnV− 7AAD+ cell fraction [1, 10]: 1.32% | AnnV− 7AAD− cell fraction [1, 10]: 55.94% | AnnV+ 7AAD+ cell fraction [1, 11]: 18.07% | AnnV+ 7AAD− cell fraction [1, 11]: 10.28% | AnnV− 7AAD+ cell fraction [1, 11]: 1.12% | AnnV− 7AAD− cell fraction [1, 11]: 70.54% | cell count [2, 6]: 48 % from control | cell count ([2]; 50 nM, no TTFields): 82 % from control | cell count [2, 7]: 46 % from control | cell count ([2]; 100 nM, no TTFields): 75 % from control | cell count [2, 8]: 30 % from control | cell count ([2]; 200 nM, no TTFields): 64 % from control | cell count [2, 9]: 24 % from control | cell count ([2]; 400 nM, no TTFields): 39 % from control | cell count ([2]; 800 nM, + TTFields 150 kHz 1.6 V/cm): 21 % from control | cell count ([2]; 800 nM, no TTFields): 25 % from control | cell count [2, 10]: 51 % from control | cell count [2, 11]: 84 % from control | cell count ([3]; 25 nM, + TTFields 150 kHz 1.0 V/cm): 62 % from control | cell count ([3]; 25 nM, no TTFields): 88 % from control | cell count ([3]; 50 nM, + TTFields 150 kHz 1.0 V/cm): 43 % from control | cell count ([3]; 50 nM, no TTFields): 66 % from control | cell count ([3]; 100 nM, + TTFields 150 kHz 1.0 V/cm): 33 % from control | cell count ([3]; 100 nM, no TTFields): 52 % from control | cell count ([3]; 200 nM, + TTFields 150 kHz 1.0 V/cm): 21 % from control | cell count ([3]; 200 nM, no TTFields): 39 % from control | cell count ([3]; 400 nM, + TTFields 150 kHz 1.0 V/cm): 8 % from control | cell count ([3]; 400 nM, no TTFields): 11 % from control | cell count ([3]; FOLFOX experiment, 50 nM, + TTFields 150 kHz 1.0 V/cm): 46 % from control | cell count [3, 11]: 78 % from control | additional clonogenic and overall effect over TTFields alone [4]: no additional effect | colonies count ([5]; + TTFields 150 kHz 1.0 V/cm): 67 % from control | colonies count ([5]; no TTFields): 91 % from control
